Measured values published in paper PMC7451048 (Drug metabolism letters, 2019).

Biological target: T1, OATP1B3 (Homo sapiens, UniProt Q9NPD5)
T1 sequence (Q9NPD5 1-702): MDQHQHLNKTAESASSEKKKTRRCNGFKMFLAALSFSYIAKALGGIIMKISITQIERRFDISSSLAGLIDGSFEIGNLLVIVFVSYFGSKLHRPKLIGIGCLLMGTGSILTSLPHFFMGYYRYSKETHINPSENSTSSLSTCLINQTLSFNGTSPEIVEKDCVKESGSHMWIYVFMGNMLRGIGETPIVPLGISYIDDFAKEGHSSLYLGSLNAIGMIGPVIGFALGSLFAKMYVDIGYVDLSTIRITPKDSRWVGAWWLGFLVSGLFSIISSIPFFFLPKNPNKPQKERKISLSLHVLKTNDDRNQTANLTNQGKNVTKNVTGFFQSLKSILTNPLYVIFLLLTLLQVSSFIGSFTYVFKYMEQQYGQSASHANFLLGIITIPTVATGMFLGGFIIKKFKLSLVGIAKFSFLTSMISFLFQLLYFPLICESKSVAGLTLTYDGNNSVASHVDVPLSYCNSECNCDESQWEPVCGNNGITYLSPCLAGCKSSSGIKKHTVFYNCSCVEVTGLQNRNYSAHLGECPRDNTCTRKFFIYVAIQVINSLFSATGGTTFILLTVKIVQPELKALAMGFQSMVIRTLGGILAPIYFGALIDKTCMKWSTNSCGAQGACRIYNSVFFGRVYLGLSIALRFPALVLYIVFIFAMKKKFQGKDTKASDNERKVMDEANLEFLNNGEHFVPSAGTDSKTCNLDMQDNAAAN
Assay: not given
Details: not given

| SMILES | Substrate of OATP1B3 (conclusion) |
| --- | --- |
| CC(NC(C)(C)C)C(O)c1cccc(Cl)c1 (stereo not drawn) [EB, Erythrohydrobupropion] | not substrates |
| C[C@H]1NC(C)(C)CO[C@]1(O)c1cccc(Cl)c1 [OHB, Hydroxybupropion] | not substrates |
| C[C@H](NC(C)(C)C)[C@@H](O)c1cccc(Cl)c1 [TB, Threohydrobupropion] | not substrates |

Biological target: T2, OCT1 (Homo sapiens, UniProt O15245)
T2 sequence (O15245 1-554): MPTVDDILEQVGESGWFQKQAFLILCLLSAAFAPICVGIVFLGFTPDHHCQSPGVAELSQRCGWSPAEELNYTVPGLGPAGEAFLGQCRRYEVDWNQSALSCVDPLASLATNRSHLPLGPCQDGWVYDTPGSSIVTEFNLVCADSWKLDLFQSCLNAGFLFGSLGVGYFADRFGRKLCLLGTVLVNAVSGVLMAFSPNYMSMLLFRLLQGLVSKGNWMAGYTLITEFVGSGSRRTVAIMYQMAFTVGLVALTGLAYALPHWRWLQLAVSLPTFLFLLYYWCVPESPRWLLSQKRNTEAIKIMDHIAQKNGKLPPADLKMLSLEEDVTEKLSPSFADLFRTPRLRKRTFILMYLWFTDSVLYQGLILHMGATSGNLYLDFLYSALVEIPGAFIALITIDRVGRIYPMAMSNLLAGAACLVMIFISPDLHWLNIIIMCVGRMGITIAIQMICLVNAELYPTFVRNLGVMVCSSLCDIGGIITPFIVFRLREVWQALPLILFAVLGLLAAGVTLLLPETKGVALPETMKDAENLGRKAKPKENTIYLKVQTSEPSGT
Assay: Cellular uptake assay, HEK/OCT1 vs HEK empty vector cells
Details: not given

| SMILES | Substrate of OCT1 (conclusion) |
| --- | --- |
| CC(NC(C)(C)C)C(O)c1cccc(Cl)c1 (stereo not drawn) [EB, Erythrohydrobupropion] | not substrates |
| C[C@H]1NC(C)(C)CO[C@]1(O)c1cccc(Cl)c1 [OHB, Hydroxybupropion] | not substrates |
| C[C@H](NC(C)(C)C)[C@@H](O)c1cccc(Cl)c1 [TB, Threohydrobupropion] | not substrates |

Biological target: MRP2 (Homo sapiens, UniProt Q92887)
Assay: Plasma membrane vesicle transport assay, MRP2 vesicles
Details: not given

Sequence of MRP2 (Q92887 whole entry): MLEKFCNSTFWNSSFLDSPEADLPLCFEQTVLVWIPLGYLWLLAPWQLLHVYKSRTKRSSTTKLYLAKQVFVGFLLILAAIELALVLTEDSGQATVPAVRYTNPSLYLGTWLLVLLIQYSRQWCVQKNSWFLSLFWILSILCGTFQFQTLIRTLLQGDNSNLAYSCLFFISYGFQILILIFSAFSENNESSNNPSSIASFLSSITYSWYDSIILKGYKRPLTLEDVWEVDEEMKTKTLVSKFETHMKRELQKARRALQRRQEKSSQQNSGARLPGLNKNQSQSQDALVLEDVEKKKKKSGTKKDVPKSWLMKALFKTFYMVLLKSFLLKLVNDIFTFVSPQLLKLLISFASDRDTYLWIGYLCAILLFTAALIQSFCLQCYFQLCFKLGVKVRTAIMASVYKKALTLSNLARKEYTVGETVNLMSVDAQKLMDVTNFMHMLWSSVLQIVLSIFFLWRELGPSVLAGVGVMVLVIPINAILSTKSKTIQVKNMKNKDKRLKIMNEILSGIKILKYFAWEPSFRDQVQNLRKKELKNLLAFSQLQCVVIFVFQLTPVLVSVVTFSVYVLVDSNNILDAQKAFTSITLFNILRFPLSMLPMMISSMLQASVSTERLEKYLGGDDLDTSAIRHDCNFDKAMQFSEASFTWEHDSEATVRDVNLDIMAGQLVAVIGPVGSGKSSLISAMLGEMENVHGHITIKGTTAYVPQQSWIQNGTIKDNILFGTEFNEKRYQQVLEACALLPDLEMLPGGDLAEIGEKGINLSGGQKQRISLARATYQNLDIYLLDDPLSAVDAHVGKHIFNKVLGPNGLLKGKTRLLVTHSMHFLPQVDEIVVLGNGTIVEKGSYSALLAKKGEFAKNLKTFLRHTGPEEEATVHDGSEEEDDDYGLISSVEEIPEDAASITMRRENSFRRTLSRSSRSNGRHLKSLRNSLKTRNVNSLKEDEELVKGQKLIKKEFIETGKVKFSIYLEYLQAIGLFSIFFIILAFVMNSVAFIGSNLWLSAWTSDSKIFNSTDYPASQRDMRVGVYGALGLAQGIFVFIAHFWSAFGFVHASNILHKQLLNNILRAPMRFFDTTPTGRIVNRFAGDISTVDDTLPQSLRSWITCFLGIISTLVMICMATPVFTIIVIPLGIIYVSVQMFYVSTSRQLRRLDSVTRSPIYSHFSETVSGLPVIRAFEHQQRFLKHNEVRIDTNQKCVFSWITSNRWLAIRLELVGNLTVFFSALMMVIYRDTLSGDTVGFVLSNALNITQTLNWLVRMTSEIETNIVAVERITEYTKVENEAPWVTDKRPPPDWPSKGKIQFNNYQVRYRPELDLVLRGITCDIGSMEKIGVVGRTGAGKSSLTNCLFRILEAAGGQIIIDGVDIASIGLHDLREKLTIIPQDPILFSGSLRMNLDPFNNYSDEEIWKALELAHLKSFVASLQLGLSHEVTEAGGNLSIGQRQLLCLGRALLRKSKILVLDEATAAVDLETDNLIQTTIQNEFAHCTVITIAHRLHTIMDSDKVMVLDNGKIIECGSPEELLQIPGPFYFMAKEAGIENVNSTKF

| SMILES | Substrate of MRP2 (conclusion) |
| --- | --- |
| CC(NC(C)(C)C)C(O)c1cccc(Cl)c1 (stereo not drawn) [EB, Erythrohydrobupropion] | not substrates |
| C[C@H]1NC(C)(C)CO[C@]1(O)c1cccc(Cl)c1 [OHB, Hydroxybupropion] | not substrates |
| C[C@H](NC(C)(C)C)[C@@H](O)c1cccc(Cl)c1 [TB, Threohydrobupropion] | not substrates |

Same assay, conditions: 10 μM, 1 min (Fig. 9)

| SMILES | Difference in MRP2 vesicle uptake between ATP and AMP |
| --- | --- |
| CC(NC(C)(C)C)C(O)c1cccc(Cl)c1 (stereo not drawn) [EB, Erythrohydrobupropion] | No significant differences |
| C[C@H]1NC(C)(C)CO[C@]1(O)c1cccc(Cl)c1 [OHB, Hydroxybupropion] | No significant differences |
| C[C@H](NC(C)(C)C)[C@@H](O)c1cccc(Cl)c1 [TB, Threohydrobupropion] | No significant differences |

Biological target: T3, OATP2B1 (Homo sapiens, UniProt O94956)
T3 sequence (O94956 1-709): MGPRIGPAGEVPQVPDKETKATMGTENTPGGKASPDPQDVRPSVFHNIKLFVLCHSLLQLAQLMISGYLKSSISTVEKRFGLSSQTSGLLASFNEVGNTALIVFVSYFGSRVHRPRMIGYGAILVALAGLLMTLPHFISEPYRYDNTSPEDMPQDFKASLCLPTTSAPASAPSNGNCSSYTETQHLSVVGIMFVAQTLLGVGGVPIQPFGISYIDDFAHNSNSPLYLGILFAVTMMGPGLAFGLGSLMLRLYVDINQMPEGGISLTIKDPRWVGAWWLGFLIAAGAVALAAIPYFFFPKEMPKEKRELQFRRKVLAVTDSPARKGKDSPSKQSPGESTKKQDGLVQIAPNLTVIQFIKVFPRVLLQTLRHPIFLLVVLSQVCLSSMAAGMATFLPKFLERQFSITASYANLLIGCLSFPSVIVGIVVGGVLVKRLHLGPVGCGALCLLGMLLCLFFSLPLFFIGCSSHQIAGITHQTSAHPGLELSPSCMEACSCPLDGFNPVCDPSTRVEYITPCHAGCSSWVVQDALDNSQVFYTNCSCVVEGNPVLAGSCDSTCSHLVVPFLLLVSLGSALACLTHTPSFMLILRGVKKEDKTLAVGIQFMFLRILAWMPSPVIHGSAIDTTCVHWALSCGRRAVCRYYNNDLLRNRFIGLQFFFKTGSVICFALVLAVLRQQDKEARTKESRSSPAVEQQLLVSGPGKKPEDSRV
Assay: not given
Details: 20 μM RIF; BUP 5 μM, OHB 30 μM, TB 20 μM, EB 100 μM; 3 min

| SMILES | Inhibition of cellular uptake by RIF, OATP2B1-overexpressing cells |
| --- | --- |
| CC(NC(C)(C)C)C(O)c1cccc(Cl)c1 (stereo not drawn) [EB, Erythrohydrobupropion] | no statistically significant differences |
| C[C@H]1NC(C)(C)CO[C@]1(O)c1cccc(Cl)c1 [OHB, Hydroxybupropion] | no statistically significant differences |
| C[C@H](NC(C)(C)C)[C@@H](O)c1cccc(Cl)c1 [TB, Threohydrobupropion] | no statistically significant differences |

Same assay, conditions: net cellular uptake, HEK/OATP2B1-overexpressing cells, 3 min, mean ± SD

| SMILES | Apparent Vmax [pmol/mg protein/min] |
| --- | --- |
| CC(NC(C)(C)C)C(O)c1cccc(Cl)c1 (stereo not drawn) [EB, Erythrohydrobupropion] | 1752±192 |
| C[C@H]1NC(C)(C)CO[C@]1(O)c1cccc(Cl)c1 [OHB, Hydroxybupropion] | 1641±98 |
| C[C@H](NC(C)(C)C)[C@@H](O)c1cccc(Cl)c1 [TB, Threohydrobupropion] | 1368±72 |

Same assay, conditions: read-out: Apparent Km; net cellular uptake, HEK/OATP2B1-overexpressing cells, 3 min, mean ± SD

| SMILES | Km [µM] |
| --- | --- |
| CC(NC(C)(C)C)C(O)c1cccc(Cl)c1 (stereo not drawn) [EB, Erythrohydrobupropion] | 192 ± 35 |
| C[C@H]1NC(C)(C)CO[C@]1(O)c1cccc(Cl)c1 [OHB, Hydroxybupropion] | 74 ± 12 |
| C[C@H](NC(C)(C)C)[C@@H](O)c1cccc(Cl)c1 [TB, Threohydrobupropion] | 53 ± 9 |

Test system: not given
Assay: not given
Details: ref [14], [15]; cited from earlier work

| SMILES | Pharmacological activity relative to BUP |
| --- | --- |
| CC(NC(C)(C)C)C(O)c1cccc(Cl)c1 (stereo not drawn) [EB, Erythrohydrobupropion] | 20% |
| C[C@H]1NC(C)(C)CO[C@]1(O)c1cccc(Cl)c1 [OHB, Hydroxybupropion] | 50–100% |
| C[C@H](NC(C)(C)C)[C@@H](O)c1cccc(Cl)c1 [TB, Threohydrobupropion] | 20% |

Biological target: T4, OATP4A1 (Homo sapiens, UniProt Q96BD0)
T4 sequence (Q96BD0 1-722): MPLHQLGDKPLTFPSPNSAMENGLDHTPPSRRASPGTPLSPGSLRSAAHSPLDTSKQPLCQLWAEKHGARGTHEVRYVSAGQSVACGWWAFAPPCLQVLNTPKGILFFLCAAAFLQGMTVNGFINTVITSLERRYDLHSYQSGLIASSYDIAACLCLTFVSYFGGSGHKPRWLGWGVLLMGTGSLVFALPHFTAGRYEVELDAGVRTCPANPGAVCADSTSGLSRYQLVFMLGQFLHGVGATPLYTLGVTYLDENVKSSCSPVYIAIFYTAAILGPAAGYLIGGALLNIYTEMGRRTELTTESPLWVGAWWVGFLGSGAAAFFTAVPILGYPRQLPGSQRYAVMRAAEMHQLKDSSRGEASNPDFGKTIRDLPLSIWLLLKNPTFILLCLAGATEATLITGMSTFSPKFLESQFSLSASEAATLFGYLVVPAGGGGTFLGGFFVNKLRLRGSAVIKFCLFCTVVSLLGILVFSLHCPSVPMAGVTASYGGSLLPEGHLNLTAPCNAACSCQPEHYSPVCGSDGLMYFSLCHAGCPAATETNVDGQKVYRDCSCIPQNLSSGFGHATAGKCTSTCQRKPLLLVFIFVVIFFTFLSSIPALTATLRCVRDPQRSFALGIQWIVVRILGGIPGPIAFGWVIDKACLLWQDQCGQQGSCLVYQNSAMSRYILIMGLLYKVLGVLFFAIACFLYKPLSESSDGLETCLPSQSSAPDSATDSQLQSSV
Assay: Cellular uptake assay, HEK/OATP4A1 vs HEK empty vector cells
Details: not given

| SMILES | Substrate of OATP4A1 (conclusion) |
| --- | --- |
| CC(NC(C)(C)C)C(O)c1cccc(Cl)c1 (stereo not drawn) [EB, Erythrohydrobupropion] | not substrates |
| C[C@H]1NC(C)(C)CO[C@]1(O)c1cccc(Cl)c1 [OHB, Hydroxybupropion] | not substrates |
| C[C@H](NC(C)(C)C)[C@@H](O)c1cccc(Cl)c1 [TB, Threohydrobupropion] | not substrates |
